In PMC8096243 (Nucleic Acids Research, 2021):

Columns and labels:
Type in all cases: binding
EcCdnD [1] = biological target: T1, EcCdnD (Enterobacter hormaechei, UniProt P0DSP4); assay: ITC, single site
T1 sequence (P0DSP4 1-381): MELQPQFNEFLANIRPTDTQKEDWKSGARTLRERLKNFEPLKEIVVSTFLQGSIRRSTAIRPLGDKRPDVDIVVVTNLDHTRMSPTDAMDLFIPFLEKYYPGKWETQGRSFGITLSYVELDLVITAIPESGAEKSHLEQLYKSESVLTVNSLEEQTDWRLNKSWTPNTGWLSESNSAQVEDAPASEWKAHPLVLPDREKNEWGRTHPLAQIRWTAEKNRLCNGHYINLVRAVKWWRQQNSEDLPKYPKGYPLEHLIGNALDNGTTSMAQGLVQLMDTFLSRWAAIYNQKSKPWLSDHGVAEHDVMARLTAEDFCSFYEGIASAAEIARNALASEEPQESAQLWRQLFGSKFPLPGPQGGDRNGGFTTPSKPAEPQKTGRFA

EcCdnD [2] = biological target: T1, EcCdnD; assay: crystal structure
EcCdnD [3] = biological target: T1, EcCdnD; assay: crystal structure; remark: listed apart in the source

With `Nc1nc2c(ncn2[C@@H]2O[C@H](COP(=O)(O)O[C@H]3[C@@H](O)[C@H](n4cnc5c(N)ncnc54)O[C@@H]3COP(=O)(O)OP(=O)(O)OP(=O)(O)O)[C@@H](O)[C@H]2O)c(=O)[nH]1` [5′-pppApG-3′] the Kd (EcCdnD [1]) was 29.7 ± 2.2 µM.

For `Nc1ncnc2c1ncn2[C@@H]1O[C@H](COP(=O)(O)OP(=O)(O)O)[C@@H](O)[C@H]1O` [ADP], the “crystal structure (1.87 Å), together with donor ATP” value (EcCdnD [2]) was “The diphosphate group makes seven hydrogen bonds with Arg109, Arg197 and Arg307”.

For `Nc1ncnc2c1ncn2[C@H]1CC[C@@H](CO[P@@](=O)(O)O[P@](=O)(O)OP(=O)(O)O)O1` [ddATP], the “crystal structure (2.09 Å)” value (EcCdnD [3]) was “the ddATP occupied the binding site for the donor substrate”.
